According to paper PMC9916925, “Copper (II) Species with Improved Anti-Melanoma and Antibacterial Activity by Inclusion in β-Cyclodextrin” (International Journal of Molecular Sciences, 2023):
Values after ≈ are worked out from the molar mass of the structure shown. Read-outs that look alike come from different tables or passages of the source.

How the values were obtained:
L929 cells = test: Cell cycle analysis by flow cytometry, L929; format: cell-based, mouse; conditions: L929, 24 h, 1.56 and/or 6.25 µg/mL
Protocol: (§1) A flow cytometry analysis was used to check the possible influence of the tested compounds on the cell cycle of both cellular lines L929 and B16. Before treatment, 25,000 cells per well were seeded in 24-well plates and treated with 2 concentrations of the compounds (1.56 and 6.25 µg/mL) for 24 h. After treatment, cells were detached, washed with cold PBS, and then resuspended in cold PBS mixed with 100% ethanol and kept at −20 °C for at least 24 h for fixation. The following day, the cells were stained using a 0.1% Triton-X in PBS containing 0.2 mg/mL RNAase and 20 µg/mL propidium iodide. The samples were incubated for 30 min at 37 °C in the dark. After incubation with the staining solution, the cells were washed with PBS and resuspended in 100 µL PBS. The cell cycle measurement was made using CytoFLEX (Beckman Coulter, Brea, CA, USA) by recording 30,000 events/sample. All experiments were made in triplicate, each having at least 2 wells per condition. The data was evaluated using the CytoFLEX software.

[1] = test system: Escherichia coli ATCC 25922; test: Microdilution MIC assay, planktonic E. coli; format: cell-based; conditions: this paper
Protocol: (§2) The antibacterial activity of the inclusion complexes was evaluated on the Gram-negative Escherichia coli ATCC 25922 and Gram-positive Staphylococcus aureus ATCC 25923 reference bacterial strains. The antibacterial activity of the β-CD, precursor complexes, and inclusion complexes was evaluated against planktonic and biofilm-embedded cells to obtain the minimum inhibitory (MIC) and minimum biofilm eradication (MBEC) concentrations, respectively. The antibacterial activity assays were carried out on the Gram-negative E. coli ATCC 25922 and the Gram-positive S. aureus ATCC 25923 reference strains. The antimicrobial activity of the β-CD inclusion complexes versus the β-CD and Cu(II) complexes against planktonic bacterial cells was assessed using the microdilution assay, allowing MIC determination. Anti-biofilm activity was evaluated using the crystal-violet microtiter to determine the MBEC [25]. All experiments were performed in triplicate. In both assays, serial binary concentrations ranging from 8.81 to 0.013 mM were used.

L929 fibroblasts [2] = test: MTT cellular viability assay, L929 fibroblasts; format: cell-based, mouse; conditions: L929, 24 or 48 h, concentrations up to 25 µg/mL
Protocol: Mouse fibroblast cell line L929 (CCL-1, ATCC, USA) and mouse melanoma cell B16 (ATCC CRL-6475, USA) were grown in DMEM (Dulbecco’s Modified Eagle Medium) supplemented with 2 mM L-Glutamine, 10% fetal calf serum (FCS), 100 units/mL of penicillin, and 100 µg/mL of streptomycin. They were kept at 37 °C in a humidified incubator under an atmosphere containing 5% CO2. All cell-cultivation media and reagents were purchased from Biochrom AG (Berlin, Germany) and Sigma-Aldrich (Darmstadt, Germany).
To test cellular viability, we used the MTT assay (3-(4,5-dimethylthiazol-2-yl)-2,5-diphenyltetrazolium bromide) colorimetric assay as previously described. Briefly, L929 and B16 cells were seeded in 96-well plates at a density of 5000 cells/well and grown in the culture medium for 24 h. […] The absorbance of the samples was recorded at λ = 570 nm using a plate reader (Mithras 940, Berthold, Bad Wildbad, Germany). The data were corrected for background absorbance, and the viability was calculated using the following formula:% viable cells = [(A570 of treated cells)/(A570 of untreated cells)] × 100 (%)
Half-maximal inhibitory concentration (IC50) was determined by fitting the data with a sigmoidal logistic function using Origin 8.1 (Microcal Inc., Northampton, MA, USA) software.

B16 cells = test: Cell cycle analysis by flow cytometry, B16; format: cell-based, mouse; conditions: B16, 24 h, irrespective of the tested concentration (1.56 and/or 6.25 µg/mL)
Protocol: as §1

[3] = test system: Staphylococcus aureus ATCC 25923; test: Microdilution MIC assay, planktonic S. aureus; format: cell-based; conditions: S. aureus 25923, planktonic cells, this paper
Protocol: as §2

[4] = format: physicochemical
Excerpt: Compound (1) follows a linear profile described in the literature as an AL type, according to Higuchi and Connors. This behavior corresponds to a molar ratio of 1:1 between (1a) and β-CD, similar to that obtained using Job’s method. […] This value confirms that the equilibrium between (1) and β-CD shifts to the product, indicating a high tendency of (1) to enter the cavity of β-CD together with good stability of the (1a)@β-CD complex. […] Higuchi described this model as being AP, meaning a positive deviation from the linearity, corresponding to a 1:2 molar ratio between (2) and β-CD, in very good agreement with results obtained by Job’s method. This type of stoichiometry literature indicates a possibility of evaluating the stability constant starting from the equation of a quadratic model. Even if this is not a perfect model and the value calculated is affected by an error ~30%, reliable information about the stability of the (2a)@β -CD complex could be obtained. The model ensures the calculation of K1:1 and K1:2. The obtained values were 20.44 and 6 M^–1.
The method settled for phase-solubility studies was adapted from a previous paper. First, calibration curves for (1) and (2) were obtained. For this purpose, successive dilutions from the stock solution were performed, spectra were recorded and absorbance reeded 312 nm (1) and 272 nm (2). The plot of absorbance versus concentration gives two straight lines for both (1) and (2) complexes: y = 0.5111x − 0.0323 (R^2 = 0.9996) and y = 18.792x − 0.0323 (R^2 = 0.9996), respectively. Second, water and β-CD 20 mM were added to six samples containing an excess of complex (50 mg) that had the same volume but increasing β-CD concentration. In all experiments, the final volume was 5 mL. The samples were shaken for 1 h, filtered using 0.25 µm PTFE, and the solution was diluted to 1:25 mL before the spectra were recorded. The concentration of the complex in each solution was calculated using a calibration curve described above. In the end, the phase solubility diagrams were obtained by plotting the concentration of the complex versus the concentration of β-CD. The stability constants were calculated from the phase-solubility diagram as follows: (i) Kc = slope/[So × (1 − slope)], where So is the complex’s solubility in the absence of β-CD, for a 1:1 mole ratio, and (ii) STotal = S0 + K1:1[β-CD] + K1:1K1:2[β-CD]^2, where K1:1 and K1:2 are constants for 1:1 and 1:2 host–guest complexes and STotal is the total solubility of complex, for a 1:2 stoichiometry.

biofilm-embedded cells = test: Crystal-violet microtiter anti-biofilm assay (MBEC); format: cell-based
Protocol: as §2

[5] = test system: Escherichia coli ATCC 25922; parameters: method as in PMID 34833864; conditions: E. coli, planktonic cells; ref [25]; cited from earlier work
[6] = test system: Staphylococcus aureus ATCC 25923; parameters: method as in PMID 34833864; conditions: S. aureus 25923, planktonic cells; ref [25]; cited from earlier work
B16 melanoma cells = test system: B16 melanoma cells; parameters: method as in PMID 34833864; conditions: ref [25], cited from earlier work
L929 fibroblasts [7] = test system: L929 fibroblasts; parameters: method as in PMID 34833864; conditions: L929, time not stated; ref [25]; cited from earlier work
[8] = parameters: method as in PMID 34833864; conditions: ref [25]; cited from earlier work

For `OC[C@H]1O[C@@H]2O[C@H]3[C@H](O)[C@@H](O)[C@@H](O[C@H]4[C@H](O)[C@@H](O)[C@@H](O[C@H]5[C@H](O)[C@@H](O)[C@@H](O[C@H]6[C@H](O)[C@@H](O)[C@@H](O[C@H]7[C@H](O)[C@@H](O)[C@@H](O[C@H]8[C@H](O)[C@@H](O)[C@@H](O[C@H]1[C@H](O)[C@H]2O)O[C@@H]8CO)O[C@@H]7CO)O[C@@H]6CO)O[C@@H]5CO)O[C@@H]4CO)O[C@@H]3CO` [β-CD, β-cyclodextrin], the “change of number of cells in either cell cycle phase” value (L929 cells) was “did not significantly alter”, the MIC ([1]; Escherichia coli, ATCC25922, planktonic cells, read-out: MIC) was 8.81 mM (≈ 10000 µg/mL) and the MIC ([1]; planktonic cells) was “no activity”. For the same molecule, the “effect on viability of normal fibroblast cells” value (L929 fibroblasts [2]) was “did not affect the viability”, the “change of number of cells in cell cycle phases” value (B16 cells) was “did not significantly alter” and the MIC [3] was “no activity”. It also gave an MIC ([3]; Staphylococcus aureus, ATCC25923, read-out: MIC) of 8.81 mM (≈ 10000 µg/mL).
In the case of “[Cu(bipy)(dmtp)2(OH2)](ClO4)2@β-CD [(1a)@β-CD]”, the “Kc (stability constant, 1:1)” value [4] is reported as 250 M^–1.
In the case of “[Cu(bipy)(dmtp)2(OH2)](ClO4)2·dmtp [(1)]”, the antibiofilm activity (biofilm-embedded cells) is listed as “exhibit antibiofilm activity”, the MIC [5] is listed as 0.71 mM and the MIC [6] is listed as 0.18 mM. For the same molecule, the “solubilization in water in the presence of β-CD” value [4] was “solubilized in water” and the “IC50 against B16 cells” value (B16 melanoma cells; B16, previous study) was “no IC50 could be calculated”.
For “[Cu(phen)(dmtp)2(OH2)](ClO4)2@β-CD [(2a)@β-CD]”, the “K1:1 (stability constant)” value [4] was 20.44 M^–1 and the “K1:2 (stability constant)” value [4] was 6 M^–1.
For “[Cu(phen)(dmtp)2(OH2)](ClO4)2·dmtp [(2)]”, the antibiofilm activity (biofilm-embedded cells) is given as “exhibit antibiofilm activity”, the MIC [5] is given as 0.34 mM and the IC50 (L929 fibroblasts [7]) is given as 15 µM. The “IC50 L929” value (L929 fibroblasts [7]) was 13.61 µg/mL, the “scavenging of OH· radicals” value [8] was “not observed” and the MIC [6] was 0.04 mM. For the same molecule, the “solubilization in water in the presence of β-CD” value [4] was “solubilized in water”, the “IC50 against B16 cells 24 h” value (B16 melanoma cells; B16, 24 h) was 6.88 µg/mL and the IC50 (B16 melanoma cells; B16, 24 h, read-out: IC50 against B16 cells 24 h) was 7.6 µM. For the same molecule, the “IC50 against B16 cells 48 h” value (B16 melanoma cells; B16, 48 h) was 4.15 µg/mL and the IC50 (B16 melanoma cells; B16, 48 h, read-out: IC50 against B16 cells 48 h) was 4.58 µM.
